Data published in paper PMC9260081, “Design, Synthesis, and Evaluation of Anticonvulsant Activities of New Triazolopyrimidine Derivatives” (Frontiers in Chemistry, 2022).
Like-named read-outs stand apart in the source and are kept apart here.

Assays:
MES-induced seizures = test: Maximal electroshock seizure (MES) test; format: in vivo, mice; settings: Mus musculus, ip, mice, dosages 30, 100, 300 mg/kg, read-out: MES screening, minimum dose whereby bioactivity was demonstrated in half or more of the mice
Method: (§1) Male Kunming mice with weights from 18 to 22 g were used in all the pharmacological experiments. The mice were housed in the standard cages with 10 each, where a controlled temperature (25°C ± 2°C) with a 12 h light/dark cycle was maintained. All animals had free access to food and water. All experiments and procedures involving animals were carried out according to the Guide for the Care and Use of Laboratory Animals (National Academies Press, Washington, D.C., United States). Approval from the local medical ethical committee was obtained before the experiment.
In the MES test, mice were subjected to ear stimulation using a 0.2 s 60-Hz 50-mA alternating current to elicit seizures. Tonic hind limb extension was considered as the seizure occurring, and the vanishing of tonic hind limb extension indicates the protection against the MES-induced seizures. Mice were injected intraperitoneally with test compounds at doses of 300, 100, and 30 mg/kg to evaluate their general anticonvulsant activity. Half and 4 h intervals were chosen to test the anti-MES activity. […] A series of doses of the tested compounds were injected into the mice with 10 in one group.

[1] = test system: ability to maintain equilibrium on rotating rod; test: Neurotoxicity screening (rotarod test); format: in vivo; settings: i.p., dosages 30, 100, 300 mg/kg
Method: as §1
The rotarod test was used to evaluate the neurotoxicity of the synthesized compounds. Before the formal experiments, mice were trained to climb on a rotating rod of diameter 3.2 cm with the rotation speed of 10 rpm. Test compounds in the three doses were intraperitoneally injected into the trained mice. […] The rough neurotoxic dose was obtained in which mice cannot maintain equilibrium on the rod for at least 1 min. The quantitative neurotoxic dose (TD50) of the test compounds was measured and calculated with the same method described in the MES test.

PTZ-induced seizures = test: Subcutaneous pentylenetetrazole (PTZ) test; format: in vivo, mice; settings: Mus musculus, ip, mice, dosages 30, 100, 300 mg/kg, read-out: PTZ screening, minimum dose whereby bioactivity was demonstrated in half or more of the mice
Method: as §1
In the PTZ test, mice were subcutaneously administered with PTZ at the dose of 85 mg/kg. At this dose, mice can be elicited a threshold seizure characterized by an episode of clonic spasms and tonic spasms. After being treated with test compounds at doses of 300, 100, and 30 mg/kg, the mice were considered protected if a single episode of clonic spasms of more than 5 s duration was not obtained. The quantitative anticonvulsant activity (ED50) in the PTZ model was determined and calculated with the same method described in the MES test.

| SMILES | minimal effective dose (MES-induced seizures; 0.5 h after injection) | minimal effective dose (MES-induced seizures; 4 h after injection) | NT screening (rotarod), minimum neurotoxic dose in half or more of the mice ([1]; 0.5 h after injection) | NT screening (rotarod), minimum neurotoxic dose in half or more of the mice ([1]; 4 h after injection) | minimal effective dose (PTZ-induced seizures; 0.5 h after injection) | minimal effective dose (PTZ-induced seizures; 4 h after injection) |
| --- | --- | --- | --- | --- | --- | --- |
| Brc1ccc(-c2ccnc3ncnn23)cc1 [Compound 3f, 7-(4-Bromophenyl)-[1,2,4]triazolo[1,5-a]pyrimidine] | > 300 mg/kg | > 300 mg/kg | — (A dash indicates the absence of anticonvulsant activity and neurotoxicity at the maximum dose administered (300 mg/kg)) | — (A dash indicates the absence of anticonvulsant activity and neurotoxicity at the maximum dose administered (300 mg/kg)) | > 300 mg/kg | > 300 mg/kg |
| COc1ccc(-c2ccnc3ccnn23)cc1 [Compound 4i, 7-(4-Methoxyphenyl)pyrazolo[1,5-a]pyrimidine] | > 300 mg/kg | > 300 mg/kg | — (A dash indicates the absence of anticonvulsant activity and neurotoxicity at the maximum dose administered (300 mg/kg)) | — (A dash indicates the absence of anticonvulsant activity and neurotoxicity at the maximum dose administered (300 mg/kg)) | 300 mg/kg | > 300 mg/kg |
| Fc1ccc(-c2ccnc3ccnn23)cc1 [Compound 4b, 7-(4-Fluorophenyl)pyrazolo[1,5-a]pyrimidine] | > 300 mg/kg | > 300 mg/kg | — (A dash indicates the absence of anticonvulsant activity and neurotoxicity at the maximum dose administered (300 mg/kg)) | — (A dash indicates the absence of anticonvulsant activity and neurotoxicity at the maximum dose administered (300 mg/kg)) | > 300 mg/kg | > 300 mg/kg |
| COc1ccc(-c2ccnc3ncnn23)cc1 [Compound 3i, 7-(4-Methoxyphenyl)-[1,2,4]triazolo[1,5-a]pyrimidine] | 300 mg/kg | > 300 mg/kg | — (A dash indicates the absence of anticonvulsant activity and neurotoxicity at the maximum dose administered (300 mg/kg)) | — (A dash indicates the absence of anticonvulsant activity and neurotoxicity at the maximum dose administered (300 mg/kg)) | 100 mg/kg | > 300 mg/kg |
| Clc1ccc(-c2ccnc3ccnn23)cc1 [Compound 4d, 7-(4-Chlorophenyl)pyrazolo[1,5-a]pyrimidine] | > 300 mg/kg | > 300 mg/kg | — (A dash indicates the absence of anticonvulsant activity and neurotoxicity at the maximum dose administered (300 mg/kg)) | — (A dash indicates the absence of anticonvulsant activity and neurotoxicity at the maximum dose administered (300 mg/kg)) | > 300 mg/kg | > 300 mg/kg |
| Cc1ccc(-c2ccnc3ncnn23)cc1 [Compound 3h, 7-(P-tolyl)-[1,2,4]triazolo[1,5-a]pyrimidine] | 300 mg/kg | > 300 mg/kg | — (A dash indicates the absence of anticonvulsant activity and neurotoxicity at the maximum dose administered (300 mg/kg)) | — (A dash indicates the absence of anticonvulsant activity and neurotoxicity at the maximum dose administered (300 mg/kg)) | 100 mg/kg | > 300 mg/kg |
| Clc1ccc(-c2ccnc3ccnn23)c(Cl)c1 [Compound 4e, 7-(2,4-Dichlorophenyl)pyrazolo[1,5-a]pyrimidine] | > 300 mg/kg | > 300 mg/kg | — (A dash indicates the absence of anticonvulsant activity and neurotoxicity at the maximum dose administered (300 mg/kg)) | — (A dash indicates the absence of anticonvulsant activity and neurotoxicity at the maximum dose administered (300 mg/kg)) | 300 mg/kg | > 300 mg/kg |
| Clc1ccc(-c2ccnc3ncnn23)cc1 [Compound 3d, 7-(4-Chlorophenyl)-[1,2,4]triazolo[1,5-a]pyrimidine] | > 300 mg/kg | > 300 mg/kg | — (A dash indicates the absence of anticonvulsant activity and neurotoxicity at the maximum dose administered (300 mg/kg)) | — (A dash indicates the absence of anticonvulsant activity and neurotoxicity at the maximum dose administered (300 mg/kg)) | > 300 mg/kg | > 300 mg/kg |
| Cc1ccc(-c2ccnc3ccnn23)cc1 [Compound 4h, 7-(P-tolyl)pyrazolo[1,5-a]pyrimidine] | > 300 mg/kg | > 300 mg/kg | — (A dash indicates the absence of anticonvulsant activity and neurotoxicity at the maximum dose administered (300 mg/kg)) | — (A dash indicates the absence of anticonvulsant activity and neurotoxicity at the maximum dose administered (300 mg/kg)) | 300 mg/kg | > 300 mg/kg |
| Fc1ccc(-c2ccnc3ncnn23)cc1 [Compound 3b, 7-(4-Fluorophenyl)-[1,2,4]triazolo[1,5-a]pyrimidine] | 300 mg/kg | > 300 mg/kg | — (A dash indicates the absence of anticonvulsant activity and neurotoxicity at the maximum dose administered (300 mg/kg)) | — (A dash indicates the absence of anticonvulsant activity and neurotoxicity at the maximum dose administered (300 mg/kg)) | 300 mg/kg | > 300 mg/kg |
| Brc1ccc(-c2ccnc3ccnn23)cc1 [Compound 4f, 7-(4-Bromophenyl)pyrazolo[1,5-a]pyrimidine] | > 300 mg/kg | > 300 mg/kg | — (A dash indicates the absence of anticonvulsant activity and neurotoxicity at the maximum dose administered (300 mg/kg)) | — (A dash indicates the absence of anticonvulsant activity and neurotoxicity at the maximum dose administered (300 mg/kg)) | > 300 mg/kg | > 300 mg/kg |
| CCCCOc1ccc(-c2ccnc3ncnn23)cc1 [Compound 6b, 7-(4-Butoxyphenyl)-[1,2,4]triazolo[1,5-a]pyrimidine] | 100 mg/kg | > 300 mg/kg | — (A dash indicates the absence of anticonvulsant activity and neurotoxicity at the maximum dose administered (300 mg/kg)) | — (A dash indicates the absence of anticonvulsant activity and neurotoxicity at the maximum dose administered (300 mg/kg)) | 300 mg/kg | > 300 mg/kg |
